For the test, the system named is HCV 1b-377-neo replicon cells. Nature of the test: HCV replicon assay (HCV 1b-377-neo replicon cells). The format is cell-based, Hepatitis C virus genotype 1b. The note with it: Hepatitis C virus, read-out: EC50 range against HCV 1b (Range). Here is the method: An HCV Replion assay was utilized in the present disclosure, and was prepared, conducted and validated as described in commonly owned PCT/US2006/022197 and in O'Boyle et. al. Antimicrob Agents Chemother. April 2005;49(4): 1346-53.
HCV 1b-377-neo replicon cells were used to test the currently described compound series as well as cells resistant to compound A due to a Y2065H mutation in NS5A (described in application PCT/US2006/022197). The compounds tested were determined to have more than 10-fold less inhibitory activity on cells resistant to compound A than wild-type cells indicating a related mechanism of action between the two compound series. Thus, the compounds of the present disclosure can be effective to inhibit the function of the HCV NS5A protein and are understood to be as effective in combinations as previously described in application PCT/US2006/022197 and commonly owned WO/04014852. Further, the compounds of the present disclosure can be effective against the HCV 1b genotype. It should also be understood that the compounds of the present disclosure can inhibit multiple genotypes of HCV. […] In one embodiment compounds of the present disclosure are active against the 1a, 1b, 2a, 2b, 3a, 4a, and 5a genotypes.

On to `C[C@@H](c1ncc(-c2ccc(-c3ncc(-c4cnc([C@@H]5CCCN5C(=O)[C@@H](c5ccccc5)N5CCCCC5)[nH]4)cn3)cc2)[nH]1)N(C)C(=O)[C@@H](c1ccccc1)N1CCCCC1` [Example 152j-6, (2R)-N-methyl-2-phenyl-N-((1S)-1-(4-(4-(5-(2-((2S)-1-((2R)-2-phenyl-2-(1-piperidinyl)acetyl)-2-pyrrolidinyl)-1H-imidazol-5-yl)-2-pyrimidinyl)phenyl)-1H-imidazol-2-yl)ethyl)-2-(1-piperidinyl)acetamide], for which the half-maximal effective concentration (EC50) is 0.01 to 0.999 nM.
With `CN(C)[C@@H](C(=O)N1CCC[C@H]1c1ncc(-c2ccc(-c3cnc(-c4cnc([C@@H]5CCCN5C(=O)[C@@H](c5ccccc5)N(C)C)[nH]4)cn3)cc2)[nH]1)c1ccccc1` [Example 152j-7, (1R)-2-((2S)-2-(5-(5-(4-(2-((2S)-1-((2R)-2-(dimethylamino)-2-phenylacetyl)-2-pyrrolidinyl)-1H-imidazol-5-yl)phenyl)-2-pyrazinyl)-1H-imidazol-2-yl)-1-pyrrolidinyl)-N,N-dimethyl-2-oxo-1-phenylethanamine] the figure was 1 to 99 nM; with `COC(=O)N[C@@H](C(=O)N1CCC[C@H]1c1ncc(-c2ccc(-c3cnc(-c4cnc([C@@H]5CCCN5C(=O)[C@H](NC(=O)OC)c5ccccc5)[nH]4)cn3)cc2)[nH]1)c1ccccc1` [Example 152j-8, methyl ((1R)-2-((2S)-2-(5-(5-(4-(2-((2S)-1-((2R)-2-((methoxycarbonyl)a-mino)-2-phenylacetyl)-2-pyrrolidinyl)-1H-imidazol-5-yl)phenyl)-2-pyrazinyl)-1H-imidazol-2-yl)-1-pyrrolidinyl)-2-oxo-1-phenylethyl)carbamate], 0.01 to 0.999 nM; with `CN(C)[C@@H](C(=O)N1CCC[C@H]1c1ncc(-c2ccc(-c3ccc(-c4cnc([C@@H]5CCCN5C(=O)[C@@H](c5ccccc5)N(C)C)[nH]4)nn3)cc2)[nH]1)c1ccccc1` [Example 152j-9, (1R)-2-((2S)-2-(5-(6-(4-(2-((2S)-1-((2R)-2-(dimethylamino)-2-phenylacetyl)-2-pyrrolidinyl)-1H-imidazol-5-yl)phenyl)-3-pyridazinyl)-1H-imidazol-2-yl)-1-pyrrolidinyl)-N,N-dimethyl-2-oxo-1-phenylethanamine], 1 to 99 nM.
Next, `COC(=O)N[C@@H](C(=O)N1CCC[C@H]1c1ncc(-c2ccc(-c3ccc(-c4cnc([C@@H]5CCCN5C(=O)[C@H](NC(=O)OC)c5ccccc5)[nH]4)nn3)cc2)[nH]1)c1ccccc1` [Example 152j-10, methyl ((1R)-2-((2S)-2-(5-(6-(4-(2-((2S)-1-((2R)-2-((methoxycarbonyl)a-mino)-2-phenylacetyl)-2-pyrrolidinyl)-1H-imidazol-5-yl)phenyl)-3-pyridazinyl)-1H-imidazol-2-yl)-1-pyrrolidinyl)-2-oxo-1-phenylethyl) carba-mate]: 1 to 99 nM; `C[C@H](NC(=O)[C@@H](c1ccccc1)N(C)C)c1ncc(-c2ccc(-c3ccc(-c4cnc([C@@H]5CCCN5C(=O)[C@@H](c5ccccc5)N(C)C)[nH]4)cn3)cc2)[nH]1` [Example 152j-11, (2R)-2-(dimethylamino)-N-((1S)-1-(5-(4-(5-(2-((2S)-1-((2R)-2-(dimethylamino)-2-phenylacetyl)-2-pyrrolidinyl)-1H-imidazol-5-yl)-2-pyridinyl)phenyl)-1H-imidazol-2-yl)ethyl)-2-phenylacetamide]: 0.01 to 0.999 nM; `COC(=O)N[C@@H](C(=O)N[C@@H](C)c1ncc(-c2ccc(-c3ccc(-c4cnc([C@@H]5CCCN5C(=O)[C@H](NC(=O)OC)c5ccccc5)[nH]4)cn3)cc2)[nH]1)c1ccccc1` [Example 152j-12, methyl ((1R)-2-((2S)-2-(5-(6-(4-(2-((1S)-1-(((2R)-2-((methoxycarbonyl)a-mino)-2-phenyl-acetyl)amino)eth-yl)-1H-imidazol-5-yl)phenyl)-3-pyridinyl)-1H-imidazol-2-yl)-1-pyrrolidinyl)-2-oxo-1-phenylethyl)carbamate]: 0.01 to 0.999 nM.
Regarding `C[C@H](NC(=O)[C@@H](c1ccccc1)N(C)C)c1ncc(-c2ccc(-c3ccc(-c4cnc([C@@H]5CCCN5C(=O)[C@@H](c5ccccc5)N(C)C)[nH]4)nn3)cc2)[nH]1` [Example 152j-13, (2R)-2-(dimethylamino)-N-((1S)-1-(5-(4-(6-(2-((2S)-1-((2R)-2-(dimethylamino)-2-phenylacetyl)-2-pyrrolidinyl)-1H-imidazol-5-yl)-3-pyridazinyl)phenyl)-1H-imidazol-2-yl)ethyl)-2-phenylacetamide], the EC50 was 1 to 99 nM.
Next, `COC(=O)N[C@@H](C(=O)N[C@@H](C)c1ncc(-c2ccc(-c3ccc(-c4cnc([C@@H]5CCCN5C(=O)[C@H](NC(=O)OC)c5ccccc5)[nH]4)nn3)cc2)[nH]1)c1ccccc1` [Example 152j-14, methyl ((1R)-2-((2S)-2-(5-(6-(4-(2-((1S)-1-(((2R)-2-((methoxycarbonyl)a-mino)-2-phenyl-acetyl)amino)eth-yl)-1H-imidazol-5-yl)phenyl)-3-pyridazinyl)-1H-imidazol-2-yl)-1-pyrrolidinyl)-2-oxo-1-phenylethyl)carbamate]: 1 to 99 nM.
On to `COC(=O)N[C@@H](C(=O)N[C@@H](C)c1ncc(-c2ccc(-c3ncc(-c4cnc([C@@H]5CCCN5C(=O)[C@H](NC(=O)OC)c5ccccc5)[nH]4)cn3)cc2)[nH]1)c1ccccc1` [Example 152j-15, methyl ((1R)-2-((2S)-2-(5-(2-(4-(2-((1S)-1-(((2R)-2-((methoxycarbonyl)a-mino)-2-phenyl-acetyl)amino)eth-yl)-1H-imidazol-5-yl)phenyl)-5-pyrimidinyl)-1H-imidazol-2-yl)-1-pyrrolidinyl)-2-oxo-1-phenylethyl)carbamate], for which the EC50 is 0.01 to 0.999 nM.
With `C[C@H](NC(=O)[C@@H](c1ccccc1)N(C)C)c1ncc(-c2cnc(-c3ccc(-c4cnc([C@@H]5CCCN5C(=O)[C@@H](c5ccccc5)N(C)C)[nH]4)cc3)nc2)[nH]1` [Example 152j-16, (2R)-2-(dimethylamino)-N-((1S)-1-(5-(2-(4-(2-((2S)-1-((2R)-2-(dimethylamino)-2-phenylacetyl)-2-pyrrolidinyl)-1H-imidazol-5-yl)phenyl)-5-pyrimidinyl)-1H-imidazol-2-yl)ethyl)-2-phenylacetamide] the figure was 0.01 to 0.999 nM.
Next, `COC(=O)N[C@@H](C(=O)N[C@@H](C)c1ncc(-c2cnc(-c3ccc(-c4cnc([C@@H]5CCCN5C(=O)[C@H](NC(=O)OC)c5ccccc5)[nH]4)cc3)nc2)[nH]1)c1ccccc1` [Example 152j-17, methyl ((1R)-2-((2S)-2-(5-(4-(5-(2-((1S)-1-(((2R)-2-((methoxycarbonyl)a-mino)-2-phenyl-acetyl)amino)eth-yl)-1H-imidazol-5-yl)-2-pyrimidinyl)phenyl)-1H-imidazol-2-yl)-1-pyrrolidinyl)-2-oxo-1-phenylethyl)carba-mate]: 0.01 to 0.999 nM.
In the case of `C[C@H](NC(=O)[C@@H](c1ccccc1)N(C)C)c1ncc(-c2cnc(-c3ccc(-c4cnc([C@@H]5CCCN5C(=O)[C@@H](c5ccccc5)N(C)C)[nH]4)cc3)cn2)[nH]1` [Example 152j-18, (2R)-2-(dimethylamino)-N-((1S)-1-(5-(5-(4-(2-((2S)-1-((2R)-2-(dimethylamino)-2-phenylacetyl)-2-pyrrolidinyl)-1H-imidazol-5-yl)phenyl)-2-pyrazinyl)-1H-imidazol-2-yl)ethyl)-2-phenylacetamide], the EC50 fell in the range of 0.01 to 0.999 nM.
With `COC(=O)N[C@@H](C(=O)N[C@@H](C)c1ncc(-c2cnc(-c3ccc(-c4cnc([C@@H]5CCCN5C(=O)[C@H](NC(=O)OC)c5ccccc5)[nH]4)cc3)cn2)[nH]1)c1ccccc1` [Example 152j-19, methyl ((1R)-2-((2S)-2-(5-(4-(5-(2-((1S)-1-(((2R)-2-((methoxycarbonyl)a-mino)-2-phenyl-acetyl)amino)eth-yl)-1H-imidazol-5-yl)-2-pyrazinyl)phenyl)-1H-imidazol-2-yl)-1-pyrrolidinyl)-2-oxo-1-phenylethyl)carbamate] the figure was 0.01 to 0.999 nM; with `C[C@@H](c1ncc(-c2ccc(-c3ncc(-c4cnc([C@@H]5CCCN5C(=O)[C@@H](c5ccccc5)N(C)C)[nH]4)cn3)cc2)[nH]1)N(C)C(=O)[C@@H](c1ccccc1)N(C)C` [Example 152j-20, (2R)-2-(dimethylamino)-N-((1S)-1-(5-(4-(5-(2-((2S)-1-((2R)-2-(dimethylamino)-2-phenylacetyl)-2-pyrrolidinyl)-1H-imidazol-5-yl)-2-pyrimidinyl)phenyl)-1H-imidazol-2-yl)ethyl)-N-methyl-2-phenylacetamide], 1 to 99 nM.
For the molecule `COC(=O)N[C@@H](C(=O)N(C)[C@@H](C)c1ncc(-c2ccc(-c3ncc(-c4cnc([C@@H]5CCCN5C(=O)[C@H](NC(=O)OC)c5ccccc5)[nH]4)cn3)cc2)[nH]1)c1ccccc1` [Example 152j-21, methyl ((1R)-2-((2S)-2-(5-(2-(4-(2-((1S)-1-(((2R)-2-((methoxycarbonyl)a-mino)-2-phenylacetyl)(methyl)amino)ethyl)-1H-imidazol-5-yl)phenyl)-5-pyrimidinyl)-1H-imidazol-2-yl)-1-pyrrolidinyl)-2-oxo-1-phenylethyl)carbamate], the EC50 was 0.01 to 0.999 nM.
